Patent publication US11958832B1, “2-alkoxy[4,3:6,3-terpyridine]-3-carbonitriles as antimicrobial compounds” (KING FAISAL UNIVERSITY, priority 2023, dated 2024)

Experiments:
Assay type in all cases: cell-based
[1] = tested on: Aspergillus flavus; experiment: Agar plate disc-diffusion, antifungal inhibition zone; details: Sabouraud's dextrose agar, 37° C., 72 hours, DMSO zone subtracted; for inhibition zone, Aspergillus flavus, A: A = concentration of comp. = 10,000 μL; for inhibition zone, Aspergillus flavus, B: B = concentration of comp. = 30,000 μL; for inhibition zone, Aspergillus flavus, C: C = concentration of comp. = 50,000 μL
Experimental: (§1) The agar plate disc-diffusion method was applied. Sterilized filter papers (6 mm in diameter) were wetted with 10 μL of a solution of compounds 2-ethoxy[4,3:6,3-terpyridine]-3-carbonitrile 4 and/or 2-methoxy[4,3:6,3-terpyridine]-3-carbonitrile 5 to be tested, […], and the discs were allowed to air dry. The discs were then placed onto the surface of agar plates (nutrient agar for bacteria and Sabouraud's dextrose agar for fungi) seeded with the test organism. Each plate contained 15 mL of the agar medium, previously seeded with 0.2 mL of the broth culture of each organism pregrown for 18 h. The plates were incubated at 37° C. for 48 hours, and 72 hours for fungi. The inhibition zones were measured in mm. Discs impregnated with DMSO were used as a control, and its inhibition zone was subtracted from the tested compound actual inhibition zone.

[2] = tested on: Chrysosporium keratinophilum; experiment: as above; details: Sabouraud's dextrose agar, 37° C., 72 hours, DMSO zone subtracted; for inhibition zone, Chrysosporium keratinophilum, A: A = concentration of comp. = 10,000 μL; for inhibition zone, Chrysosporium keratinophilum, B: B = concentration of comp. = 30,000 μL; for inhibition zone, Chrysosporium keratinophilum, C: C = concentration of comp. = 50,000 μL
Experimental: as §1

[3] = tested on: Pseudomonas aeruginosa; experiment: Agar plate disc-diffusion, antibacterial inhibition zone; details: nutrient agar, 37° C., 48 hours, DMSO zone subtracted; for inhibition zone, Pseudomonas aeruginosa, A: A = concentration of comp. = 10,000 μL; for inhibition zone, Pseudomonas aeruginosa, B: B = concentration of comp. = 30,000 μL; for inhibition zone, Pseudomonas aeruginosa, C: C = concentration of comp. = 50,000 μL
Experimental: as §1

[4] = tested on: Bacillus cereus; experiment: as above; details: nutrient agar, 37° C., 48 hours, DMSO zone subtracted; for inhibition zone, Bacillus Cereus, A: A = concentration of comp. = 10,000 μL; for inhibition zone, Bacillus Cereus, B: B = concentration of comp. = 30,000 μL; for inhibition zone, Bacillus Cereus, C: C = concentration of comp. = 50,000 μL
Experimental: as §1

[5] = tested on: Escherichia coli; experiment: as above; details: nutrient agar, 37° C., 48 hours, DMSO zone subtracted; for inhibition zone, Escherichia coli, A: A = concentration of comp. = 10,000 μL; for inhibition zone, Escherichia coli, B: B = concentration of comp. = 30,000 μL; for inhibition zone, Escherichia coli, C: C = concentration of comp. = 50,000 μL
Experimental: as §1

[6] = tested on: Staphylococcus aureus; experiment: as above; details: nutrient agar, 37° C., 48 hours, DMSO zone subtracted; for inhibition zone, Staphylococcus aureus, A: A = concentration of comp. = 10,000 μL; for inhibition zone, Staphylococcus aureus, B: B = concentration of comp. = 30,000 μL; for inhibition zone, Staphylococcus aureus, C: C = concentration of comp. = 50,000 μL
Experimental: The agar plate disc-diffusion method was applied. […] The discs were then placed onto the surface of agar plates (nutrient agar for bacteria and Sabouraud's dextrose agar for fungi) seeded with the test organism. Each plate contained 15 mL of the agar medium, previously seeded with 0.2 mL of the broth culture of each organism pregrown for 18 h. The plates were incubated at 37° C. for 48 hours, and 72 hours for fungi. The inhibition zones were measured in mm. Discs impregnated with DMSO were used as a control, and its inhibition zone was subtracted from the tested compound actual inhibition zone.

SMILES	inhibition zone, Aspergillus flavus, A [1]	inhibition zone, Aspergillus flavus, B [1]	inhibition zone, Aspergillus flavus, C [1]	inhibition zone, Chrysosporium keratinophilum, A [2]	inhibition zone, Chrysosporium keratinophilum, B [2]	inhibition zone, Chrysosporium keratinophilum, C [2]	inhibition zone, Pseudomonas aeruginosa, A [3]	inhibition zone, Pseudomonas aeruginosa, B [3]	inhibition zone, Pseudomonas aeruginosa, C [3]	inhibition zone, Bacillus Cereus, A [4]	inhibition zone, Bacillus Cereus, B [4]	inhibition zone, Bacillus Cereus, C [4]	inhibition zone, Escherichia coli, A [5]	inhibition zone, Escherichia coli, B [5]	inhibition zone, Escherichia coli, C [5]	inhibition zone, Staphylococcus aureus, A [6]	inhibition zone, Staphylococcus aureus, B [6]	inhibition zone, Staphylococcus aureus, C [6]
CCOc1nc(-c2cccnc2)cc(-c2cccnc2)c1C#N [Compound 4, 2-ethoxy[4,3:6,3-terpyridine]-3-carbonitrile]	21 mm	25 mm	35 mm	24 mm	27 mm	40 mm	24 mm	29 mm	39 mm	24 mm	27 mm	35 mm	27 mm	37 mm	48 mm	18 mm	22 mm	34 mm
COc1nc(-c2cccnc2)cc(-c2cccnc2)c1C#N [Compound 5, 2-methoxy[4,3:6,3-terpyridine]-3-carbonitrile]	25 mm	27 mm	38 mm	27 mm	29 mm	48 mm	24 mm	32 mm	38 mm	26 mm	28 mm	38 mm	28 mm	38 mm	50 mm	19 mm	28 mm	34 mm
